Square brackets hold non-standard residues; d marks the D form. Peptide text beside a SMILES is read from it. Tyr(3-NO2) = N[CH](Cc1ccc(O)c([N+](=O)[O-])c1)C(=O)O
Tests used:
[1] = molecular target: T1, rat recombinant neurolysin (Rattus norvegicus, UniProt P42676); assay: Enzymatic assay: QFS hydrolysis by rat recombinant neurolysin; assay type: biochemical; conditions: QFS 25 μM, compared to vehicle control; for % activity at 10: 10 μM compound; for % activity at (100): 100 μM compound
T1 construct: polyhistidine (N); made in house; host or cells: Escherichia coli (pBAD/His vector)
T1 sequence (P42676 38-704): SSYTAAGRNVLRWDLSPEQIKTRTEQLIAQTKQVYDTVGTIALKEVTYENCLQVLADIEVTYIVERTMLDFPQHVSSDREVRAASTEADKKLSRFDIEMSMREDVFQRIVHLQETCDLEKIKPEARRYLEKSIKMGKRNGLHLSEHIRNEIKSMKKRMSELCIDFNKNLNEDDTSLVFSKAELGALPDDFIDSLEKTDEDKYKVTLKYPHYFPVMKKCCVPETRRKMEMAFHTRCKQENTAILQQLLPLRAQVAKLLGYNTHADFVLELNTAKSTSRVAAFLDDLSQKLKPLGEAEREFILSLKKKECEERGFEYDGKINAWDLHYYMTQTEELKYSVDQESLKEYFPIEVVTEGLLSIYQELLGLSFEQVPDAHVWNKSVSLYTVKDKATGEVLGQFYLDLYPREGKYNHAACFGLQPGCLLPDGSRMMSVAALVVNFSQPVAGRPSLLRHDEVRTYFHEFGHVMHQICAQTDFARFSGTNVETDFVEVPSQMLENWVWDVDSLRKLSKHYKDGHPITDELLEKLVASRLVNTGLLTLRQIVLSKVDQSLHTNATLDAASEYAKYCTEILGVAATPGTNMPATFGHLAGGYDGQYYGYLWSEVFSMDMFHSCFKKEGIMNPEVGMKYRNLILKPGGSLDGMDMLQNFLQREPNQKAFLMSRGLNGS
Protocol: Rat recombinant neurolysin—N-terminal polyhistidine tagged recombinant rat neurolysin was produced in Escherichia coli using a plasmid construct in pBAD/His vector system (Invitrogen) kindly provided by Dr. David W. Rodgers (University of Kentucky) (32,33). Bacterial culture was carried out in Terrific Broth in 2 L Erlenmeyer flasks using an incubator shaker (1-2400, New Brunswick Scientific). Expression was induced by addition of arabinose (1 mM final concentration), the cells were pelleted 3 h after induction and stored at −80° C. freezer. Bacterial pellets were resuspended and lysed in phosphate buffer (20 mM NaH2PO4, 500 mM NaCl, 0.05% Tween-20, pH 8.0) containing 0.25 mg/ml lysozyme, 1 mM phenylmethylsulfonyl fluoride, 0.05 mg/ml DNAse and 0.02 mg/ml RNase, followed by brief sonication. After centrifugation (40,000×g, 20 min at 4° C.) the supernatant was applied to a Ni-NTA Superflow cartridge (Qiagen), followed by washing and elution of recombinant neurolysin with phosphate buffer containing 25 and 250 mM imidazole, respectively. The eluted protein was further purified by size exclusion chromatography using a TSK gel BioAssist G2SWxl column (Tosoh bioscience) in AKTA Purifier FPLC system (GE Healthcare). […] Specific activity of recombinant neurolysin was determined by an enzymatic assay described below.
All assays were initiated by addition of QFS (100 μl assay volume in 96-well plates), and each experimental sample was present in duplicate.
In all experiments, test compounds were incubated with neurolysin for 10 min at 37° C. before addition of the substrate to start the reaction. All test compounds were dissolved in DMSO at 10 to 50 mM stock concentrations.
Statistical Analyses—statistical analyses and curve fitting were conducted with GraphPad Prism 6.0 software. For each enzymatic reaction, slope of the line which represents the initial velocity (Vo) for the reaction progress curve was calculated using the liner regression model of the software (Vo=Slope=Δ fluorescent intensity of the reaction product/Δ time). EC50 values for the modulators were calculated by fitting initial velocity values for hydrolysis of QFS by neurolysin in the presence of varying concentrations of a modulator into a nonlinear regression model for the three-parameter log(stimulator) vs. response equation [Y=Bottom+(Top−Bottom)/(1+10^((Log EC50−X)))].

Neurolysin (Nln) = molecular target: T2, Neurolysin (Nln) (Rattus norvegicus, UniProt P42676); assay: Nln activation in isolated enzyme assay (A50, Amax); assay type: biochemical; conditions: 95% CI in parentheses; for Amax (maximum % activation achieved): 100% = normal enzyme turnover
T2 construct: polyhistidine (N); made in house; host or cells: Escherichia coli (pBAD/His vector), if the rat enzyme of b61 was used
T2 sequence (P42676 38-704): as above

[2] = molecular target: thimet oligopeptidase (TOP) (Homo sapiens, UniProt P52888); assay: Peptidase selectivity: quenched fluorescent substrate hydrolysis by TOP; conditions: concentration-response up to 300 μM
thimet oligopeptidase (TOP), sequence (P52888 whole entry): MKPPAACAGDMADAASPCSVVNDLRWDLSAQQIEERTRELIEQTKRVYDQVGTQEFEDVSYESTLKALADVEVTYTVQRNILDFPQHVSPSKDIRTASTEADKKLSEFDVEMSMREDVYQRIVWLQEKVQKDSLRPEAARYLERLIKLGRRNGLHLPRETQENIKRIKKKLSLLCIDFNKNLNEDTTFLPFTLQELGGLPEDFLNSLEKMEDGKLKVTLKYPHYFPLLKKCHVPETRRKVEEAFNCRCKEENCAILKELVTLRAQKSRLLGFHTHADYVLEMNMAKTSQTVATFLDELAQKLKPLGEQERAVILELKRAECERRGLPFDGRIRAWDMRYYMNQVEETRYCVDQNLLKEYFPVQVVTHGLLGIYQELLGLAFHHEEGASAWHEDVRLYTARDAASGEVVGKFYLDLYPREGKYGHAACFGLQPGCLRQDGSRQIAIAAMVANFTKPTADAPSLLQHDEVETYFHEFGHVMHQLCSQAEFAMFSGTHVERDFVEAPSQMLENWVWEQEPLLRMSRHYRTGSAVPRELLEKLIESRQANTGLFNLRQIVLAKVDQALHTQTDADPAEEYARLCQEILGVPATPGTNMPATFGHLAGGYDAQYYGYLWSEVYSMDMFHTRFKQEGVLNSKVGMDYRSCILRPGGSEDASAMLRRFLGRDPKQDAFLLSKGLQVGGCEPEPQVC
Protocol: Activity of recombinant human TOP was assessed in the same way as for neurolysin, except that the assay was carried out in the presence of 0.1 mM dithiothreitol (37).

[3] = molecular target: T3, angiotensin converting enzyme (ACE) (Homo sapiens, UniProt P12821); assay: Peptidase selectivity: quenched fluorescent substrate hydrolysis by ACE; assay type: biochemical; conditions: concentration-response up to 300 μM
T3 construct: purchased R & D systems 929-ZN
T3 sequence (P12821 30-1306): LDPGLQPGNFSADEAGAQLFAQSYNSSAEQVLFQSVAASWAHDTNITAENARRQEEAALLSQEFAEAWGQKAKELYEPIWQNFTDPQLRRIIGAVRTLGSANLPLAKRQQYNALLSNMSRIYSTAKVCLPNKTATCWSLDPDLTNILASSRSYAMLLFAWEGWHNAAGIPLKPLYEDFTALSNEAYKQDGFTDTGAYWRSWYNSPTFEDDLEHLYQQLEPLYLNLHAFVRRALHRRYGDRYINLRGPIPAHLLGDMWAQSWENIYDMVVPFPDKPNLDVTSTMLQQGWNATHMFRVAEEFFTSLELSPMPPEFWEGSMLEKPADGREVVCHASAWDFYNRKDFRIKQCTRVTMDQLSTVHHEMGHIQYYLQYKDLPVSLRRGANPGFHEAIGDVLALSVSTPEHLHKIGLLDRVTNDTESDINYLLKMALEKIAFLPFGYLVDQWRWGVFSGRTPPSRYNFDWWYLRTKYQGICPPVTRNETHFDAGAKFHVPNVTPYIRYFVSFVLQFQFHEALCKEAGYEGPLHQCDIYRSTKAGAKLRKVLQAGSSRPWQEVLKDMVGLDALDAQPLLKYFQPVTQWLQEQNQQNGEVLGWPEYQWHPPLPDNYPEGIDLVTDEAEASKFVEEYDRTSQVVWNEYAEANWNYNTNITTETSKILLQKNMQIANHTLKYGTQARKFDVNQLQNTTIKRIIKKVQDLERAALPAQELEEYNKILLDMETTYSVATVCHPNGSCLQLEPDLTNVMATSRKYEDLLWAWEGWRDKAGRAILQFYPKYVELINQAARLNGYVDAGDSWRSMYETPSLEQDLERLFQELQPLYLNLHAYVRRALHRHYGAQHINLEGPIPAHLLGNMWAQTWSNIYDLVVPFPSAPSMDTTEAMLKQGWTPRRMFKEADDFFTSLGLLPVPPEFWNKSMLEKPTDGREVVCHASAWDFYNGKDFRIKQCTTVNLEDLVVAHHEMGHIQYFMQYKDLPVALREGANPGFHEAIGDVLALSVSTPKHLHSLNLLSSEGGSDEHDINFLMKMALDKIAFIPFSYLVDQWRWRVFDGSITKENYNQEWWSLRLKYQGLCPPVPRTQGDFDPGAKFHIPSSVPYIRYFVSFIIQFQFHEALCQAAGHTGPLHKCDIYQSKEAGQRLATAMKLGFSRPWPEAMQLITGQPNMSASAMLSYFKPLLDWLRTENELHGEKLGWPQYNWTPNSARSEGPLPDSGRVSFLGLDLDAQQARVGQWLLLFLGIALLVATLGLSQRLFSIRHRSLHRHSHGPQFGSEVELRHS

[4] = molecular target: T4, angiotensin converting enzyme 2 (ACE2) (Homo sapiens, UniProt Q9BYF1); assay: Peptidase selectivity: quenched fluorescent substrate hydrolysis by ACE2; assay type: biochemical; conditions: concentration-response up to 300 μM
T4 construct: purchased R & D systems 933-ZN
T4 sequence (Q9BYF1 18-805): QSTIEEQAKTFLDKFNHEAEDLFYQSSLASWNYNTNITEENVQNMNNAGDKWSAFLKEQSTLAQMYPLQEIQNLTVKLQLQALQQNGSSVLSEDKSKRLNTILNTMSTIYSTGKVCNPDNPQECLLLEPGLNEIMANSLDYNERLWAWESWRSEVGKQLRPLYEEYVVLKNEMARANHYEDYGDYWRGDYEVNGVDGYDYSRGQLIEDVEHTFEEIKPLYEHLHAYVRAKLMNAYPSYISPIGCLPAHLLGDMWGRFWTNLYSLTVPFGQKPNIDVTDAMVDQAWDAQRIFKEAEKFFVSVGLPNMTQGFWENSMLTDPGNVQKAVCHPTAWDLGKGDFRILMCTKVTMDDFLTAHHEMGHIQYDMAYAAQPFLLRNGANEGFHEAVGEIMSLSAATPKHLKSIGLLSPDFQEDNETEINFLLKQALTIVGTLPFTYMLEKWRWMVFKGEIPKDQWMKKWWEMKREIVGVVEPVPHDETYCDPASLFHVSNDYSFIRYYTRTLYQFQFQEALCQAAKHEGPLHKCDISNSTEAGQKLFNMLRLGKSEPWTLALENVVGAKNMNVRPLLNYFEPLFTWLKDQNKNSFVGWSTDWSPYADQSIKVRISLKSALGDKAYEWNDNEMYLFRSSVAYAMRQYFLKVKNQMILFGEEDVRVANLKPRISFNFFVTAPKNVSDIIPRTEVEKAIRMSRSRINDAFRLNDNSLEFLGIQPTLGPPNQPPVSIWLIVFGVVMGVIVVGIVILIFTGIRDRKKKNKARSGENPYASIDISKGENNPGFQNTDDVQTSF

[5] = system: co-culture of primary mouse astrocytes and immortalized mouse endothelial cells (bEnd3); assay: In vitro BBB permeability, apical to basolateral transport; assay type: in vitro ADME; conditions: 10 μg/mL, 37° C.
Protocol: The permeability coefficient (Pe) was calculated from the cleared volume of each compound versus time. Values represent the mean±SD of three measurements.
Mouse primary astrocytes were isolated from the cerebral cortices of one day old pups (CD-1 mice, Charles Rivers Laboratory) following a literature method.^36 After extracting the brain, cortices were separated, minced and placed in Hank's balanced salt solution (HBSS) without calcium and magnesium, supplemented with gentamycin (10 μg/m). […] The cell suspensions were seeded into a T75 flask and the medium was changed every 3 days for 10-14 days or until reaching confluency.
For bEnd3 and astrocyte co-culture, the Transwell filters ([…] pore size, 12-well; Corning, Lowell, Mass.) were used. First, the Transwell filter was inverted and astrocytes at a density of 150,000 cells/filter were seeded onto the abluminal side of the filter and allowed to adhere for 4 hours. Then the Transwell filter was inverted back and the cells were grown for 2 days in astrocyte medium. At the end of 48 hours, bEnd3 cells at a density of 50,000 cells/filter were seeded onto the upper/luminal side of the filter and the co-culture of astrocytes and bEnd3 cells were grown for an additional 8 days. The medium for both compartments were changed every other day according to literature proceedures.^37
The apparent permeability coefficient (Pe, in cm/min) was calculated according to the cleared volume of each time point, as previously described.^38,39
Permeability measurement for each compound was run for 120 minutes. The media was removed and transwells were rinsed and incubated with HBSS buffer at 37° C. for 30 minutes. […] Concentration of compounds was determined by LC-MS/MS. Since the blank Transwell insert itself (without cells) provides resistance to the passage of buffer and compound from the donor to receiver chamber, the permeability of each compound was also measured in a blank insert and the final permeability coefficient results were calculated by considering the permeability of each compound in a blank insert.

| SMILES | % activity at 10 [1] | % activity at (100) [1] | also measured |
| --- | --- | --- | --- |
| NCCCNCCSP(=O)(O)O [Compound 296961] | 106% | 127% | – |
| COc1ccc2c(c1)c(=O)c(C(=O)O)cn2CCCOc1ccc([N+](=O)[O-])cc1 [Compound 211002] | 104% | 100% | – |
| CC(NCCN1CCCC1)C(O)c1ccc(O)c(O)c1.Cl (stereo not shown) [Compound 48778] | 89% | 84% | – |
| O=C1CSC(c2cccnc2)N1CCN1C(=O)CSC1c1cccnc1 (stereo not shown) [Compound 615399] | 108% | 108% | – |
| O=P1(NCC2CCCO2)OCC2(CO1)COP(=O)(NCC1CCCO1)OC2 (stereo not shown) [Compound 88659] | 100% | 100% | – |
| CC(C)CC(NC(=O)C(N)CC(=O)O)C(=O)O (stereo not drawn) [Compound 332636] (H-Asp-Leu-OH; configuration not given here) | 103% | 64% | – |
| CC1CN(CCCN)C(C)CN1CCCN (stereo not shown) [Compound 14541] | 97% | 103% | – |
| O=C(O)C1C2C=CC(O2)C1C(=O)NCCCN1CCOCC1 (stereo not shown) [Compound 47096] | 101% | 111% | – |
| Cc1cn(C(C=O)OC(C=O)CO)c(=O)[nH]c1=O (stereo not shown) [Compound 266752] | 107% | 97% | – |
| Cl.NC(=O)C(Cc1ccc(O)cc1)NC(=O)C(N)Cc1c[nH]c2ccccc12 (stereo not drawn) [Compound 339919] (H-Trp-Tyr-NH2; configuration not given here) | 100% | 63% | – |
| CC(NCCN(C)C)C1CC2CCCCN2C1 (stereo not shown) [Compound 600947] | 107% | 105% | – |
| CC(C)CC(NC(=O)C(C)N)C(=O)NCC(=O)O (stereo not shown) [Compound 333568] | 106% | 77% | – |
| CCC1COc2nc(=O)c(C=NCCCN(C)C)c(N)n21 (stereo not shown) [Compound 608820] | 102% | 108% | – |
| CSCCC(N)[P+](=O)O (stereo not shown) [Compound 359097] | 87% | 92% | – |
| O=C(O)CNC(=O)CNC(=O)c1ccc2ccccc2n1 [Compound 400844] | 104% | 84% | – |
| CC1(C)SC(C(NC(=O)Cc2ccccc2)C(=O)O)NC1C(=O)O (stereo not shown) [Compound 163084] | 103% | 102% | – |
| NCC(SSC(CN)C(=O)O)C(=O)O (stereo not shown) [Compound 302851] | 104% | 80% | – |
| CN1CCC(O)(c2ccccc2)C(CCC(=O)N2CCCC2)C1.Cl (stereo not shown) [Compound 15180] | 102% | 95% | – |

| SMILES | % activity at 10 [1] | % activity at (100) [1] | also measured |
| --- | --- | --- | --- |
| NC1=C(O)/C(=N/NS(=O)(=O)c2ccccc2)C(c2ccc3c(c2)OCO3)O1 (stereo not shown) [Compound 640354] | 79% | 76% | – |
| NCC(=O)N1CCC[C@H]1C(=O)NCC(=O)NCC(=O)O [Compound 89624] (H-GPGG-OH) | 102% | 38% | – |
| Cl.NC(=O)C(Cc1ccc(O)c([N+](=O)[O-])c1)NC(=O)C(N)Cc1ccccc1 (stereo not shown) [Compound 343028] (H-Phe-[Tyr(3-NO2)]-NH2; configuration not given here) | 98% | 73% | – |
| S=C(NCN1CCNCC1)C(=S)NCN1CCNCC1 [Compound 203396] | 102% | 106% | – |
| COC(=O)CCN1CCN(CCO)CC1C (stereo not shown) [Compound 659264] | 104% | 107% | – |
| CN(CCc1cnc2nc(N)[nH]c(=O)c2n1)c1ccc(C(=O)O)cc1 [Compound 121184] | 77% | 18% | – |
| CCOCCOCCN1CNc2nc(N)[nH]c(=O)c2C1 [Compound 92597] | 105% | 98% | – |
| CC1(C)CC(=O)C(CC(=O)c2ccccc2)=C(NN=C(N)N)C1 [Compound 282137] | 106% | 94% | – |
| COC1OC2COC(c3ccccc3)OC2C(N=Cc2ccccc2)C1O (stereo not shown) [Compound 210826] | 101% | 105% | – |
| COCN1CCC2N(COC)CCC3N(COC)CCC1N23 (stereo not shown) [Compound 82001] | 105% | 100% | – |
| N[C@@H](Cc1c[nH]cn1)C(=O)NCc1ccc2ccccc2c1 [Compound 10a, (S)-2-amino-3-(1H-imidazol-4-yl)-N-(naphthalen-2-ylmethyl)propanamide] | – | – | EC50 (Neurolysin (Nln); read-out: A50 (concentration required to activate Nln by 50%)): 4.4 µM; Amax (maximum % activation achieved) (Neurolysin (Nln)): 210.9 (191.7 to 231.9) %; effect on activity of TOP (in words) [2]: No appreciable inhibition |
| N[C@@H](Cc1c[nH]cn1)C(=O)Nc1cccc2cccnc12 [Compound 11a, (S)-2-amino-3-(1H-imidazol-4-yl)-N-(quinolin-8-yl)propanamide] | – | – | effect on activity of ACE (in words) [3]: show inhibition of ACE at high concentration; Amax (maximum % activation achieved) (Neurolysin (Nln)): 252.4 (231.4 to 274.9) %; effect on activity of ACE2 (in words) [4]: showed inhibition of ACE2 at high concentrations; permeability coefficient (Pe) [5]: 1.14±0.02×10^−3 cm/min |
| CCCCCCN(C)C12CN3CN(CN(C3)C1)C2 [Compound 281707] | 109% | 113% | – |
| CC(C)C(N)C(=O)NC(C(=O)NS(=O)(=O)c1ccc(N)cc1)C(C)C (stereo not shown) [Compound 340049] | 94% | 52% | – |
| N#CC(C#N)N=Nc1ccc(S(=O)(=O)N=C(N)N)cc1 [Compound 134119] | 83% | 41% | – |
| Clc1cc(Cl)c(C[N+]23CN4CN(CN(C4)C2)C3)cc1Cl.[Cl-] [Compound 155877] | 82% | 4% | – |
| CNCCc1cn(C2OC(CO)C(O)C(O)C2O)cn1 (stereo not shown) [Compound 131922] | 96% | 28% | – |

Source: patent US20210198647A1, “Enhancers of Neurolysin Activity” (Texas Tech University System, priority 2018, published 2021)
